Results: PubChem BioAssay (NCI)
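All cell lines were grown in 96-well plates and treated with compound for 48 hours. GI50 marks 50% less growth. TGI denotes the concentration required for complete inhibition of growth.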

Legend:
Assay in all cases: growth of human tumour cells (NCI), 48 h
HCC-2998 colon = test system: HCC-2998 colon
NCI/ADR-RES ovarian = test system: NCI/ADR-RES ovarian
A498 renal = test system: A498 renal
SF-539 CNS = test system: SF-539 CNS
SK-MEL-5 melanoma = test system: SK-MEL-5 melanoma
SF-295 CNS = test system: SF-295 CNS
UO-31 renal = test system: UO-31 renal
SNB-19 CNS = test system: SNB-19 CNS
UACC-257 melanoma = test system: UACC-257 melanoma
KM12 colon = test system: KM12 colon

## N#Cc1c(-c2ccc(Cl)cc2)csc1NC(=O)Nc1cccc(C(F)(F)F)c1
HCC-2998 colon
  GI50: 2.75 µM
  TGI: 7.97 µM
NCI/ADR-RES ovarian
  GI50: 2.1 µM
  TGI: 4.7 µM
A498 renal
  GI50: 1.79 µM
  TGI: 4.3 µM
SF-539 CNS
  GI50: 2.06 µM
  TGI: 4.85 µM
SK-MEL-5 melanoma
  GI50: 1.74 µM
  TGI: 3.18 µM
SF-295 CNS
  GI50: 1.74 µM
  TGI: 4.21 µM
UO-31 renal
  GI50: 1.8 µM
  TGI: 5.48 µM
SNB-19 CNS
  GI50: 3.39 µM
  TGI: 13.4 µM
UACC-257 melanoma
  GI50: 2.53 µM
  TGI: 6.74 µM
KM12 colon
  GI50: 2.64 µM
  TGI: 9.9 µM
